Reference: patent US12227500B2, “Substituted pyrrolo[2,3-b]pyridines for suppressing toxic endoplasmic reticulum stress” (THE TRUSTEES OF COLUMBIA UNIVERSITY IN THE CITY OF NEW YORK, priority 2018, dated 2025)
Where two headings read alike, the source gives them in different places.

How the values were obtained:
Assay in all cases: Radiolabeled ATP kinase assay, panel of 371 kinases (Table S6)
Format in all cases: biochemical
[1] = molecular target: T1, panel of 371 human kinases (Homo sapiens, UniProt Q06187); details: BTK; 0.1 μM; 10 μM ATP; read-out: % Enzyme Activity (relative to DMSO controls)
T1 construct: purchased Reaction Biology Corp
Excerpt: (§1) ; FIG. 38C). […]. Further targeted analyses, such as genetic knock-down or knock-out, may be warranted to parse the role of these additional kinases in our model of neurodegeneration.

[2] = molecular target: T2, panel of 371 human kinases (Homo sapiens, UniProt P35968); details: KDR/VEGFR2; 0.1 μM; 10 μM ATP; read-out: % Enzyme Activity (relative to DMSO controls)
T2 construct: purchased Reaction Biology Corp
Excerpt: as §1

[3] = molecular target: T3, panel of 371 human kinases (Homo sapiens, UniProt P54756); details: EPHA5; 0.1 μM; 10 μM ATP; read-out: % Enzyme Activity (relative to DMSO controls)
T3 construct: purchased Reaction Biology Corp
Excerpt: as §1

[4] = molecular target: T4, panel of 371 human kinases (Homo sapiens, UniProt P51957); details: NEK4; 0.1 μM; 10 μM ATP; read-out: % Enzyme Activity (relative to DMSO controls)
T4 construct: purchased Reaction Biology Corp
Excerpt: as §1

[5] = molecular target: T5, panel of 371 human kinases (Homo sapiens, UniProt Q7KZI7); details: MARK2/PAR-1Ba; 0.1 μM; 10 μM ATP; read-out: % Enzyme Activity (relative to DMSO controls)
T5 construct: purchased Reaction Biology Corp
Excerpt: as §1

[6] = molecular target: T6, panel of 371 human kinases (Homo sapiens, UniProt P24941); details: 0.1 μM, 10 μM ATP, read-out: % Enzyme Activity (relative to DMSO controls)
T6 construct: purchased Reaction Biology Corp
Excerpt: as §1

[7] = molecular target: T7, panel of 371 human kinases (Homo sapiens, UniProt Q8N568); details: DCAMKL2; 0.1 μM; 10 μM ATP; read-out: % Enzyme Activity (relative to DMSO controls)
T7 construct: purchased Reaction Biology Corp
Excerpt: as §1

[8] = molecular target: T8, panel of 371 human kinases (Homo sapiens, UniProt O96013); details: PAK4; 0.1 μM; 10 μM ATP; read-out: % Enzyme Activity (relative to DMSO controls)
T8 construct: purchased Reaction Biology Corp
Excerpt: as §1

[9] = molecular target: T9, panel of 371 human kinases (Homo sapiens, UniProt O43353); details: RIPK2; 0.1 μM; 10 μM ATP; read-out: % Enzyme Activity (relative to DMSO controls)
T9 construct: purchased Reaction Biology Corp
Excerpt: as §1

[10] = molecular target: T10, panel of 371 human kinases (Homo sapiens, UniProt Q9UKE5); details: TNIK; 0.1 μM; 10 μM ATP; read-out: % Enzyme Activity (relative to DMSO controls)
T10 construct: purchased Reaction Biology Corp
Excerpt: as §1

[11] = molecular target: T11, panel of 371 human kinases (Homo sapiens, UniProt Q96PN8); details: TSSK3/STK22C; 0.1 μM; 10 μM ATP; read-out: % Enzyme Activity (relative to DMSO controls)
T11 construct: purchased Reaction Biology Corp
Excerpt: as §1

[12] = molecular target: T12, panel of 371 human kinases (Homo sapiens, UniProt P78368); details: CK1g2; 0.1 μM; 10 μM ATP; read-out: % Enzyme Activity (relative to DMSO controls)
T12 construct: purchased Reaction Biology Corp
Excerpt: as §1

[13] = molecular target: T13, panel of 371 human kinases (Homo sapiens, UniProt Q02763); details: TIE2/TEK; 0.1 μM; 10 μM ATP; read-out: % Enzyme Activity (relative to DMSO controls)
T13 construct: purchased Reaction Biology Corp
Excerpt: as §1

[14] = molecular target: T14, panel of 371 human kinases (Homo sapiens, UniProt P53778); details: P38g; 0.1 μM; 10 μM ATP; read-out: % Enzyme Activity (relative to DMSO controls)
T14 construct: purchased Reaction Biology Corp
Excerpt: as §1

[15] = molecular target: T15, panel of 371 human kinases (Homo sapiens, UniProt P15056); details: BRAF; 0.1 μM; 10 μM ATP; read-out: % Enzyme Activity (relative to DMSO controls)
T15 construct: purchased Reaction Biology Corp
Excerpt: as §1

[16] = molecular target: T16, panel of 371 human kinases (Homo sapiens, UniProt Q9P1W9); details: PIM2; 0.1 μM; 10 μM ATP; read-out: % Enzyme Activity (relative to DMSO controls)
T16 construct: purchased Reaction Biology Corp
Excerpt: as §1

[17] = molecular target: T17, panel of 371 human kinases (Homo sapiens, UniProt Q86Y07); details: VRK2; 0.1 μM; 10 μM ATP; read-out: % Enzyme Activity (relative to DMSO controls)
T17 construct: purchased Reaction Biology Corp
Excerpt: as §1

[18] = molecular target: T18, panel of 371 human kinases (Homo sapiens, UniProt Q9H2K8); details: TAOK3/JIK; 0.1 μM; 10 μM ATP; read-out: % Enzyme Activity (relative to DMSO controls)
T18 construct: purchased Reaction Biology Corp
Excerpt: as §1

[19] = molecular target: T19, panel of 371 human kinases (Homo sapiens, UniProt Q9H4B4); details: PLK3; 0.1 μM; 10 μM ATP; read-out: % Enzyme Activity (relative to DMSO controls)
T19 construct: purchased Reaction Biology Corp
Excerpt: as §1

[20] = molecular target: T20, panel of 371 human kinases (Homo sapiens, UniProt Q9NYL2); details: ZAK/MLTK; 0.1 μM; 10 μM ATP; read-out: % Enzyme Activity (relative to DMSO controls)
T20 construct: purchased Reaction Biology Corp
Excerpt: as §1

[21] = molecular target: T21, panel of 371 human kinases (Homo sapiens, UniProt Q8TDX7); details: NEK7; 0.1 μM; 10 μM ATP; read-out: % Enzyme Activity (relative to DMSO controls)
T21 construct: purchased Reaction Biology Corp
Excerpt: as §1

[22] = molecular target: T22, panel of 371 human kinases (Homo sapiens, UniProt Q86Z02); details: HIPK1; 0.1 μM; 10 μM ATP; read-out: % Enzyme Activity (relative to DMSO controls)
T22 construct: purchased Reaction Biology Corp
Excerpt: as §1

[23] = molecular target: T23, panel of 371 human kinases (Homo sapiens, UniProt P57078); details: RIPK4; 0.1 μM; 10 μM ATP; read-out: % Enzyme Activity (relative to DMSO controls)
T23 construct: purchased Reaction Biology Corp
Excerpt: as §1

T9 sequence (O43353 whole entry): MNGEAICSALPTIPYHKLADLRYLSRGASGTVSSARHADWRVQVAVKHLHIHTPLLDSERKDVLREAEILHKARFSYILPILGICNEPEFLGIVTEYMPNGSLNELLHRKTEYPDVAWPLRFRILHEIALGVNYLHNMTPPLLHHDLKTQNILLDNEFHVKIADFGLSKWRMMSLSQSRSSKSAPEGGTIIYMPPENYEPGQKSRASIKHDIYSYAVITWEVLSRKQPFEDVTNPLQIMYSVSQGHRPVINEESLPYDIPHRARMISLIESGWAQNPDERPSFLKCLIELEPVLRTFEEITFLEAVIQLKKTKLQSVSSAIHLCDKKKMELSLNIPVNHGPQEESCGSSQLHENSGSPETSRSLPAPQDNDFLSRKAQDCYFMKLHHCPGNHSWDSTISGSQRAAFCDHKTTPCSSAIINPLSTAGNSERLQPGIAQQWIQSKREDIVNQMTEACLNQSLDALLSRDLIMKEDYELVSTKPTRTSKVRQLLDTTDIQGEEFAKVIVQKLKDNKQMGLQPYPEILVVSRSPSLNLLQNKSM
T1 sequence (Q06187 whole entry): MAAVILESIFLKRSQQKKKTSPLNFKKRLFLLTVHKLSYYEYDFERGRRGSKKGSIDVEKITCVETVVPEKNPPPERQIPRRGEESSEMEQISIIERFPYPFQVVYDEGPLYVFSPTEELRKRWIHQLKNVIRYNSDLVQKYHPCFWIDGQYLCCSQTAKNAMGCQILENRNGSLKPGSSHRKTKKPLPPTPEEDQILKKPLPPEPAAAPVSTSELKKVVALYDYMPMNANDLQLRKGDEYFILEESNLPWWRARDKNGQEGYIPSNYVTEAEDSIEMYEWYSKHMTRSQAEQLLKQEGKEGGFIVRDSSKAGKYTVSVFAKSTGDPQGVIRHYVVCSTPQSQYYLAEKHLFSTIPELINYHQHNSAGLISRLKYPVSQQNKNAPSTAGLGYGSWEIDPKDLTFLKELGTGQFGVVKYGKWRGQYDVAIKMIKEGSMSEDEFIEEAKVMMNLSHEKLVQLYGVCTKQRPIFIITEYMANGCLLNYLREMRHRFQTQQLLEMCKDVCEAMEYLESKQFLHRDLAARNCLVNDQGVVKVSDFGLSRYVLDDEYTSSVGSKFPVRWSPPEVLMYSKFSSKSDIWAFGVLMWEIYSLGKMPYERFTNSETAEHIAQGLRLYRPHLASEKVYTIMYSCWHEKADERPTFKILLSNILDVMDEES
T4 sequence (P51957 whole entry): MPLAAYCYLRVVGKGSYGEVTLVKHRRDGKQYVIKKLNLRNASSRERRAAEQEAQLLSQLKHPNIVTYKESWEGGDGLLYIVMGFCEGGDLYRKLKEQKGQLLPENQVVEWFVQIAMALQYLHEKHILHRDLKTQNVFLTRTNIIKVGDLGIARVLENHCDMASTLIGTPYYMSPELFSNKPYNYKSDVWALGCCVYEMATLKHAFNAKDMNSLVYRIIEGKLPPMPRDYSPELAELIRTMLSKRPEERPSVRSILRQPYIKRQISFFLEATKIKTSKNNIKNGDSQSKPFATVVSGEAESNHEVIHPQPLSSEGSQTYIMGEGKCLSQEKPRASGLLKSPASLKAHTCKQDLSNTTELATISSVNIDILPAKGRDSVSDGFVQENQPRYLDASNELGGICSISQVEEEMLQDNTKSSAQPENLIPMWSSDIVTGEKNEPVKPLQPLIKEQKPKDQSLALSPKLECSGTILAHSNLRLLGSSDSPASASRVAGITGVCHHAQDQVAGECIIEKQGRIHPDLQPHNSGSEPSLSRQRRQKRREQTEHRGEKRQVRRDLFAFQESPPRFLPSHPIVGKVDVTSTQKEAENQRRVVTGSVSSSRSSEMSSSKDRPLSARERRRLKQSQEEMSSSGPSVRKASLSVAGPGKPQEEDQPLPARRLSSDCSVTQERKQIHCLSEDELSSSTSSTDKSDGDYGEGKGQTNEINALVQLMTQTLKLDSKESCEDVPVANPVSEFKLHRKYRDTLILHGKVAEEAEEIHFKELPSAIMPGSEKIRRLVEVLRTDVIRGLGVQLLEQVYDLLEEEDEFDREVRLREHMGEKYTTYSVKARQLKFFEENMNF
T21 sequence (Q8TDX7 whole entry): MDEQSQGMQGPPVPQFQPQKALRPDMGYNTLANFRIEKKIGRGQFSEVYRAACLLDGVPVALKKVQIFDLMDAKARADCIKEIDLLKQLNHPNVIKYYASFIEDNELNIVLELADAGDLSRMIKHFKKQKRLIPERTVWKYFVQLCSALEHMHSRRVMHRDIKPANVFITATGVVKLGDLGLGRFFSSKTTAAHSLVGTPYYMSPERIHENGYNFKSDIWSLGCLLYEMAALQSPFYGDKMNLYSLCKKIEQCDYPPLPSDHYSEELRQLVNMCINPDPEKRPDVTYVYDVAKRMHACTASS
T13 sequence (Q02763 23-1124): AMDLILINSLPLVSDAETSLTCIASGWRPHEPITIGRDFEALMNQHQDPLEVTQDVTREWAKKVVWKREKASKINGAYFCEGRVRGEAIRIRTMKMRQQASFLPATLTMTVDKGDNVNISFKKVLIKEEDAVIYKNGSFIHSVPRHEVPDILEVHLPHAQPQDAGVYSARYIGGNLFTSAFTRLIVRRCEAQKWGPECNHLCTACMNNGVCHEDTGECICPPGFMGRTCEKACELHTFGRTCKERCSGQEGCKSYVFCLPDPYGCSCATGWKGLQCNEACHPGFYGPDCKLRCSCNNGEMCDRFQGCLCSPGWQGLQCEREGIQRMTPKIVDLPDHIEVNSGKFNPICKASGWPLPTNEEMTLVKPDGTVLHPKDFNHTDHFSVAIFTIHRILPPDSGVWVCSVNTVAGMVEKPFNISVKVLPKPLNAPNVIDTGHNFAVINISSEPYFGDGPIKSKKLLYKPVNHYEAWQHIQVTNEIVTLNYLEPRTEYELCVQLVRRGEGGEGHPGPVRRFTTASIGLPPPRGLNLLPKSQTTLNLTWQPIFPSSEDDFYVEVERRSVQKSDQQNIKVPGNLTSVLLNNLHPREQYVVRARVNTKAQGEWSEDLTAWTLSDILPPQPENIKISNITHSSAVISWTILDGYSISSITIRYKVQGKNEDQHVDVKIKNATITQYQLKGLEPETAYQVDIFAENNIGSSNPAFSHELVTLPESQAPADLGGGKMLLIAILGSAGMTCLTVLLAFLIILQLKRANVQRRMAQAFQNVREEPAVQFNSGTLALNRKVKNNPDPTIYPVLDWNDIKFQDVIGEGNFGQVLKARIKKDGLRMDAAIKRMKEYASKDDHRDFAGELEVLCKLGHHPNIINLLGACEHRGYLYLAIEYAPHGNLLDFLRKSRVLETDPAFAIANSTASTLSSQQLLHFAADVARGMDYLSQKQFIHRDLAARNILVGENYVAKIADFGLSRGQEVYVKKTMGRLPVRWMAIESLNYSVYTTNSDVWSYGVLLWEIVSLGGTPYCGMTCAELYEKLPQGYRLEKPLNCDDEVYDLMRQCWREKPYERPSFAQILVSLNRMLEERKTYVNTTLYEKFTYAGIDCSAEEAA
T17 sequence (Q86Y07 whole entry): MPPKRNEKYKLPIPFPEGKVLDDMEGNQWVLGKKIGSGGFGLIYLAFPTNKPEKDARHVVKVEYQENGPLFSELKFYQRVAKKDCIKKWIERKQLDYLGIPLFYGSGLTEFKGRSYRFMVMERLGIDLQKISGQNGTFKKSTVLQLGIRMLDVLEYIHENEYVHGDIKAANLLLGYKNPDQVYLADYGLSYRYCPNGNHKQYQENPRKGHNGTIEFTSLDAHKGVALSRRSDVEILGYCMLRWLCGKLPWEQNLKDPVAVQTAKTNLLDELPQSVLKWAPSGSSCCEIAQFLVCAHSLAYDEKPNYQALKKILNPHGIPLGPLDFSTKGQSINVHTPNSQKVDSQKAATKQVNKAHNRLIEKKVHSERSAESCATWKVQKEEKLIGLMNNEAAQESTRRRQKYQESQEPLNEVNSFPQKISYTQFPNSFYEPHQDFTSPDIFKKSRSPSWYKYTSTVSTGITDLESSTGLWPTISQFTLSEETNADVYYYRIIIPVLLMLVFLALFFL
T20 sequence (Q9NYL2 whole entry): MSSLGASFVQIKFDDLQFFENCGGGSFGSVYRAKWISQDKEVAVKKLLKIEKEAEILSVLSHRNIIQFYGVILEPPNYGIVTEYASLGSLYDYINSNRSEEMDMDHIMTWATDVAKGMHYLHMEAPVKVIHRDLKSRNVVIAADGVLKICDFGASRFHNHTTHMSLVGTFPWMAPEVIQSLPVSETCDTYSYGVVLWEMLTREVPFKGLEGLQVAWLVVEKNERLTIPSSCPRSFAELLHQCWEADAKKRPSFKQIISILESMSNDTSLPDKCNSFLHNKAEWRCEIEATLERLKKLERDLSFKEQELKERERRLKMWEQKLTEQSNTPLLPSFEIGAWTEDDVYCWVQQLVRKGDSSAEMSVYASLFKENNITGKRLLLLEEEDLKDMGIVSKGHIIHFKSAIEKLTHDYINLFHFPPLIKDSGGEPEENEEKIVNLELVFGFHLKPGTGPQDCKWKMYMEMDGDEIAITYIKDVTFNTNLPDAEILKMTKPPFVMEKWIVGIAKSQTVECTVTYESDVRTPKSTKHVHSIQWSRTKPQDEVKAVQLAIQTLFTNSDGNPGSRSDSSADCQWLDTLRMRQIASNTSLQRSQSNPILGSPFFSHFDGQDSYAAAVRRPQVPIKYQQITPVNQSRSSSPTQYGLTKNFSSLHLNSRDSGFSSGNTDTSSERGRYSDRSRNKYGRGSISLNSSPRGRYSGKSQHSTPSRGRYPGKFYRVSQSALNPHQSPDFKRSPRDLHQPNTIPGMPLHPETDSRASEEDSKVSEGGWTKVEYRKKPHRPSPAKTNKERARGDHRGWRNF
T11 sequence (Q96PN8 whole entry): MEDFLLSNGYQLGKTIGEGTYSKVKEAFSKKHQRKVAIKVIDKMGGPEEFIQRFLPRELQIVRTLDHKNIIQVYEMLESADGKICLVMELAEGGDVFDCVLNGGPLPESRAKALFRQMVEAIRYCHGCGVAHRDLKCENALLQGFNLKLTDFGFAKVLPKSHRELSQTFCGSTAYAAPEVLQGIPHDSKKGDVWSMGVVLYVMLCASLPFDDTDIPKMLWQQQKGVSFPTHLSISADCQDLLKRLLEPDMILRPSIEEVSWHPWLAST

| Compound | remaining activity at 0.1 µM [1] | remaining activity at 0.1 µM [2] | remaining activity at 0.1 µM [3] | remaining activity at 0.1 µM [4] | remaining activity at 0.1 µM [5] | remaining activity at 0.1 µM ([6]; CDK2/cyclin A1) | remaining activity at 0.1 µM ([6]; CDK2/cyclin A) | remaining activity at 0.1 µM ([6]; CDK2/cyclin E2) | remaining activity at 0.1 µM ([6]; CDK2/cyclin E) | remaining activity at 0.1 µM ([6]; CDK2/cyclin O) | remaining activity at 0.1 µM [7] | remaining activity at 0.1 µM [8] | remaining activity at 0.1 µM [9] | remaining activity at 0.1 µM [10] | remaining activity at 0.1 µM [11] | remaining activity at 0.1 µM [12] | remaining activity at 0.1 µM [13] | remaining activity at 0.1 µM [14] | remaining activity at 0.1 µM [15] | remaining activity at 0.1 µM [16] | also measured |
| --- | --- | --- | --- | --- | --- | --- | --- | --- | --- | --- | --- | --- | --- | --- | --- | --- | --- | --- | --- | --- | --- |
| CN1CCN(Cc2ccc(-c3cnc4[nH]cc(-c5ccc6[nH]ccc6c5)c4c3)cc2)CC1 [Compound 1, 3-(1H-Indol-5-yl)-5-(4-((4-methylpiperazin-1-yl)methyl)phenyl)-1H-pyrrolo[2,3-b]pyridine, reference compound] | 103% | 76.2% | 94.2% | 89.8% | 78% | 94.2% | 90.2% | 110% | 96.1% | 102% | 87.1% | 88% | 78.5% | 5.84% | 146% | 102% | 95% | 108% | 105% | 106% | remaining activity at 0.1 µM [17]: 99.8%; remaining activity at 0.1 µM [18]: 87.3%; remaining activity at 0.1 µM [19]: 106%; remaining activity at 0.1 µM [20]: 91.3%; remaining activity at 0.1 µM [21]: 94.9%; remaining activity at 0.1 µM [22]: 106%; remaining activity at 0.1 µM [23]: 98.3% |
| OCCN1CCN(Cc2ccc(-c3cnc4[nH]cc(-c5cccc(Cl)c5)c4c3)cc2)CC1 [Compound 12k, 2-(4-(4-(3-(3-Chlorophenyl)-1H-pyrrolo[2,3-b]pyridin-5-yl)benzyl)piperazin-1-yl)ethan-1-ol] | 99.7% | 84.7% | 98.8% | 87.4% | 51.7% | 87.1% | 83.1% | 89.6% | 98.3% | 82.5% | 87.6% | 93.8% | 92.3% | -0.01% | 129% | 102% | 103% | 99.7% | 98% | 106% | remaining activity at 0.1 µM [17]: 98.6%; remaining activity at 0.1 µM [18]: 79.8%; remaining activity at 0.1 µM [19]: 103%; remaining activity at 0.1 µM [20]: 77.9%; remaining activity at 0.1 µM [21]: 101%; remaining activity at 0.1 µM [22]: 96%; remaining activity at 0.1 µM [23]: 98% |
